According to patent US9795140B2, “Molecules having pesticidal utility, and intermediates, compositions, and processes, related thereto” (priority 2015, dated 2017):

Assays:
Format in all cases: in vivo
[1] = test system: Beet Armyworm (Spodoptera exigua, LAPHEG); test: Bioassay on Beet Armyworm (BAW), 128-well diet tray assay; conditions: 168 h, 50 μg/cm^2 on artificial diet, second instar larvae, 25° C., five to seven days, average of eight wells, read-out: BAW % Control (or Mortality) rating
Method in brief: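 Test molecule dissolved in acetone-water 90:10 is applied at 50 μg/cm^2 onto artificial diet and allowed to dry. Second instar larvae, one to five per well, are then added, and trays are vented and kept at 25° C. for five to seven days before mortality is scored.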

[2] = test system: Cabbage Looper (Trichoplusia ni, TRIPNI); test: Bioassay on Cabbage Looper (CL), 128-well diet tray assay; conditions: 168 h, 50 μg/cm^2 on artificial diet, second instar larvae, 25° C., five to seven days, average of eight wells, read-out: CL % Control (or Mortality) rating
Method in brief: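 Percent larval mortality, averaged across eight replicate wells, was scored after 5–7 days at 25 °C with a 14:10 photoperiod. Each well held 1 mL diet surface-treated at 50 μg/cm^2 with test molecule from a 90:10 acetone-water solution, then dried. Wells were infested with one to five second-instar cabbage loopers.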

[3] = test system: Yellow Fever Mosquito (Aedes aegypti, AEDSAE); test: Bioassay on Yellow Fever Mosquito (YFM) larvae, 96-well plate; conditions: about 1 day-old larvae, room temperature, 3 days, scored on mortality
Method in brief: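 Compound stocks at 4000 ppm in DMSO were diluted with 90:10 water/acetone, and 15 μL aliquots were dispensed into six replicate plates. About 1-day-old larvae in liver-powder water were added per well. Plates were covered and held at room temperature for 3 days before each well was scored for mortality.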

SMILES | mortality at 50 µg/cm2 [1] | mortality at 50 µg/cm2 [2] | YFM % Control (or Mortality) rating [3]
CSCCN(C)C(=O)c1cc(NC(=O)[C@H]2[C@H](c3cc(Cl)cc(Cl)c3)C2(Cl)Cl)ccc1Cl (relative stereo) [F68, trans-2-Chloro-5-(2,2-dichloro-3-(3,5-dichlorophenyl)cyclopropane-1-carboxamido)-N-methyl-N-(2-(methylthio)ethyl)benzamide] | 50 to 100% | 50 to 100% | D (No activity noticed in this bioassay)
COc1c(Cl)cc([C@H]2[C@H](C(=O)Nc3ccc(Cl)c(C(=O)NCCC(F)(F)F)c3)C2(Cl)Cl)cc1Cl (relative stereo) [F88, trans-2-Chloro-5-(2,2-dichloro-3-(3,5-dichloro-4-methoxyphenyl)cyclopropane-1-carboxamido)-N-(3,3,3-trifluoropropyl)benzamide] | 50 to 100% | 50 to 100% | B (More than 0-Less than 80)
CCNC(=O)c1cc(NC(=O)[C@H]2[C@H](c3cc(Cl)cc(Cl)c3)C2(Cl)Cl)cc(Cl)c1Cl (relative stereo) [F91, trans-2,3-Dichloro-5-(2,2-dichloro-3-(3,5-dichlorophenyl)cyclopropane-1-carboxamido)-N-ethylbenzamide] | 50 to 100% | 50 to 100% | A (80-100)
O=C(NCC1CC(F)(F)C1)c1cc(NC(=O)[C@H]2[C@H](c3cc(Cl)cc(Cl)c3)C2(Cl)Cl)ccc1Cl (relative stereo) [F70, trans-2-Chloro-5-(2,2-dichloro-3-(3,5-dichlorophenyl)cyclopropane-1-carboxamido)-N-((3,3-difluorocyclobutyl)methyl)benzamide] | 50 to 100% | 50 to 100% | D (No activity noticed in this bioassay)
CC(C)(NC(=O)c1cc(NC(=O)[C@H]2[C@H](c3cc(Cl)cc(Cl)c3)C2(Cl)Cl)ccc1Cl)c1ccc(F)cc1 (relative stereo) [F97, 2-Chloro-5-(trans-2,2-dichloro-3-(3,5-dichlorophenyl)cyclopropane-1-carboxamido)-N-(2-(4-fluorophenyl)propan-2-yl)benzamide] | 50 to 100% | 50 to 100% | A (80-100)
O=C(NCC(F)(F)C(F)(F)C(F)(F)F)c1cc(NC(=O)[C@H]2[C@H](c3cc(Cl)cc(Cl)c3)C2(Cl)Cl)ccc1Cl (relative stereo) [F61, trans-2-Chloro-5-(2,2-dichloro-3-(3,5-dichlorophenyl)cyclopropane-1-carboxamido)-N-(2,2,3,3,4,4,4-heptafluorobutyl)benzamide] | 50 to 100% | 50 to 100% | D (No activity noticed in this bioassay)
CCNC(=O)c1cc(NC(=O)[C@H]2[C@H](c3ccc(F)c(Cl)c3)C2(Cl)Cl)ccc1Cl (relative stereo) [F103, trans-2-Chloro-5-(2,2-dichloro-3-(3-chloro-4-fluorophenyl)cyclopropane-1-carboxamido)-N-ethylbenzamide] | 50 to 100% | 50 to 100% | A (80-100)
CCCNC(=O)c1cc(NC(=O)[C@H]2[C@H](c3cc(Cl)c(OC)c(Cl)c3)C2(Cl)Cl)ccc1Cl (relative stereo) [F84, trans-2-Chloro-5-(2,2-dichloro-3-(3,5-dichloro-4-methoxyphenyl)cyclopropane-1-carboxamido)-N-propylbenzamide] | 50 to 100% | 50 to 100% | D (No activity noticed in this bioassay)
C[C@H](CSCCC(F)(F)F)NC(=O)c1cc(NC(=O)C2C(c3cc(Cl)cc(Cl)c3)C2(Cl)Cl)ccc1Cl (stereo in doubt) [PF2, trans-2-Chloro-5-(2,2-dichloro-3-(3,5-dichlorophenyl)cyclopropane-1-carboxamido)-N—((R)-1-((3,3,3-trifluoropropyl)thio)propan-2-yl)benzamide] | 50 to 100% | 50 to 100% | A (80-100)
O=C(NCC(F)(F)F)c1cc(NC(=O)[C@H]2[C@H](c3ccc(C(F)F)c(Cl)c3)C2(Cl)Cl)ccc1Cl (relative stereo) [F132, 2-Chloro-5-(trans-2,2-dichloro-3-(3-chloro-4-(difluoromethyl)phenyl)cyclopropane-1-carboxamido)-N-(2,2,2-trifluoroethyl)benzamide] | 50 to 100% | 50 to 100% | A (80-100)
CN(CC1CC(F)(F)C1)C(=O)c1cc(NC(=O)[C@H]2[C@H](c3cc(Cl)cc(Cl)c3)C2(Cl)Cl)ccc1Cl (relative stereo) [F73, trans-2-Chloro-5-(2,2-dichloro-3-(3,5-dichlorophenyl)cyclopropane-1-carboxamido)-N-((3,3-difluorocyclobutyl)methyl)-N-methylbenzamide] | 50 to 100% | 50 to 100% | A (80-100)
O=C(NCCC(F)(F)F)c1cc(NC(=O)[C@H]2[C@H](c3ccc(F)c(Cl)c3)C2(Cl)Cl)ccc1Cl (relative stereo) [F107, trans-2-Chloro-5-(2,2-dichloro-3-(3-chloro-4-fluorophenyl)cyclopropane-1-carboxamido)-N-(3,3,3-trifluoropropyl)benzamide] | 50 to 100% | 50 to 100% | B (More than 0-Less than 80)
C[C@H](CS(=O)(=O)CCC(F)(F)F)NC(=O)c1cc(NC(=O)C2C(c3cc(Cl)cc(Cl)c3)C2(Cl)Cl)ccc1Cl (stereo in doubt) [PF4, trans-2-Chloro-5-(2,2-dichloro-3-(3,5-dichlorophenyl)cyclopropane-1-carboxamido)-N—((R)-1-((3,3,3-trifluoropropyl)sulfonyl)propan-2-yl)benzamide] | 50 to 100% | 50 to 100% | A (80-100)
O=C(NCC(F)(F)F)c1cc(NC(=O)[C@H]2[C@H](c3ccc(Cl)c(C(F)(F)F)c3)C2(Cl)Cl)ccc1Cl (relative stereo) [F117, 2-Chloro-5-(trans-2,2-dichloro-3-(4-chloro-3-(trifluoromethyl)phenyl)cyclopropane-1-carboxamido)-N-(2,2,2-trifluoroethyl)benzamide] | 50 to 100% | 50 to 100% | A (80-100)
CCNC(=O)c1cc(NC(=O)[C@H]2[C@H](c3cc(Cl)cc(Cl)c3)C2(Cl)Cl)c(Cl)cc1Cl (relative stereo) [F98, trans-2,4-Dichloro-5-(2,2-dichloro-3-(3,5-dichlorophenyl)cyclopropane-1-carboxamido)-N-ethylbenzamide] | 0 to 50% | 0% | A (80-100)
O=C(NCCCl)c1cc(NC(=O)[C@H]2[C@H](c3cc(Cl)cc(Cl)c3)C2(Cl)Cl)ccc1Cl (relative stereo) [F51, trans-2-Chloro-N-(2-chloroethyl)-5-(2,2-dichloro-3-(3,5-dichlorophenyl)cyclopropane-1-carboxamido)benzamide] | 50 to 100% | 50 to 100% | B (More than 0-Less than 80)
COc1c(Cl)cc([C@H]2[C@H](C(=O)Nc3ccc(Cl)c(C(=O)NCCF)c3)C2(Cl)Cl)cc1Cl (relative stereo) [F86, trans-2-Chloro-5-(2,2-dichloro-3-(3,5-dichloro-4-methoxyphenyl)cyclopropane-1-carboxamido)-N-(2-fluoroethyl)benzamide] | 50 to 100% | 50 to 100% | B (More than 0-Less than 80)
COC(=O)C(CCSC)NC(=O)c1cc(NC(=O)[C@H]2[C@H](c3cc(Cl)cc(Cl)c3)C2(Cl)Cl)ccc1Cl (relative stereo) [PF10, trans-Methyl-2-(2-chloro-5-(2,2-dichloro-3-(3,5-dichlorophenyl)cyclopropane-1-carboxamido)benzamido)-4-(methylthio)butanoate] | 50 to 100% | 50 to 100% | B (More than 0-Less than 80)
O=C(NCCCC(F)(F)F)c1cc(NC(=O)[C@H]2[C@H](c3cc(Cl)cc(Cl)c3)C2(Cl)Cl)ccc1Cl (relative stereo) [F72, trans-2-Chloro-5-(2,2-dichloro-3-(3,5-dichlorophenyl)cyclopropane-1-carboxamido)-N-(4,4,4-trifluorobutyl)benzamide] | 50 to 100% | 50 to 100% | A (80-100)
O=C(NCCc1nccs1)c1cc(NC(=O)[C@H]2[C@H](c3cc(Cl)cc(Cl)c3)C2(Cl)Cl)ccc1Cl (relative stereo) [PF12, trans-2-Chloro-5-(2,2-dichloro-3-(3,5-dichlorophenyl)cyclopropane-1-carboxamido)-N-(2-(thiazol-2-yl)ethyl)benzamide] | 50 to 100% | 50 to 100% | A (80-100)
